Reference: ChEMBL document CHEMBL4609992, “Discovery of novel small molecule induced selective degradation of the bromodomain and extra-terminal (BET) bromodomain protein BRD4 and BRD2 with cellular potencies” (Bioorg Med Chem, 2020)
The source made the active and inactive calls. The calls are words filed in the database; no cut-off is given here.

How the values were obtained:
[1] = tested on: 786-0; test: Growth inhibition of human 786-0 cells assessed as cell growth inhibition incubated for 48 hrs by sulforhodamine B assay; assay type: functional; conditions: 786-0, 48 h
[2] = tested on: RPMI-8226; test: Antiproliferative activity against human RPMI8226 cells assessed as reduction in cell viability; assay type: functional, cell-based
[3] = tested on: COLO 205; test: Antiproliferative activity against human COLO205 cells assessed as reduction in cell viability; assay type: functional, cell-based
[4] = tested on: SF-295; test: Growth inhibition of human SF295 cells assessed as cell growth inhibition incubated for 48 hrs by sulforhodamine B assay; assay type: functional; conditions: SF-295, 48 h
[5] = tested on: HOP-92; test: Growth inhibition of human HOP92 cells assessed as cell growth inhibition incubated for 48 hrs by sulforhodamine B assay; assay type: functional; conditions: HOP-92, 48 h
[6] = tested on: MOLT-4; test: Growth inhibition of human MOLT4 cells assessed as cell growth inhibition incubated for 48 hrs by sulforhodamine B assay; assay type: functional; conditions: MOLT-4, 48 h
[7] = tested on: BT-549; test: Growth inhibition of human BT549 cells assessed as cell growth inhibition incubated for 48 hrs by sulforhodamine B assay; assay type: functional; conditions: BT-549, 48 h
[8] = tested on: A-375; test: Antiproliferative activity against human A375 cells assessed as reduction in cell viability; assay type: functional, cell-based
[9] = tested on: MV4-11; test: Induction of apoptosis in human MV4-11 cells at < 100 nM measured after 24 hrs by Annexin V-FITC/propidium iodide staining based FACScan flow cytometry relative to control; assay type: functional
[10] = tested on: KM12; test: Growth inhibition of human KM12 cells assessed as cell growth inhibition incubated for 48 hrs by sulforhodamine B assay; assay type: functional; conditions: KM12, 48 h
[11] = tested on: A549; test: Growth inhibition of human A549/ATCC cells assessed as cell growth inhibition incubated for 48 hrs by sulforhodamine B assay; assay type: functional; conditions: A549, 48 h
[12] = tested on: Malme-3M; test: Growth inhibition of human MALME-3M cells assessed as cell growth inhibition incubated for 48 hrs by sulforhodamine B assay; assay type: functional
[13] = tested on: CCRF-CEM; test: Growth inhibition of human CCRF-CEM cells assessed as cell growth inhibition incubated for 48 hrs by sulforhodamine B assay; assay type: functional
[14] = tested on: MV4-11; test: Cell cycle arrest in human MV4-11 cells assessed as accumulation at G1 phase at 100 nM measured after 24 hrs by RNase/propidium iodide staining based FACScan flow cytometry (reference value: 59.66 %); assay type: functional
[15] = molecular target: T1, Protein cereblon/Bromodomain-containing protein 4/Cullin-4A (Homo sapiens) (UniProt O60885+Q96SW2+Q13619); test: Protac activity at cereblon/cullin4A/BRD4 in human MV4-11 cells assessed as induction of BRD4 degradation at 1 to 500 nM measured after 18 hrs by Western blot analysis; assay type: cell-based
[16] = tested on: COLO 205; test: Growth inhibition of human COLO205 cells assessed as cell growth inhibition incubated for 48 hrs by sulforhodamine B assay; assay type: functional; conditions: COLO 205, 48 h
[17] = tested on: RPMI-8226; test: Growth inhibition of human RPMI8226 cells assessed as cell growth inhibition incubated for 48 hrs by sulforhodamine B assay; assay type: functional; conditions: RPMI-8226, 48 h
[18] = tested on: HCC827; test: Antiproliferative activity against human HCC827 cells assessed as reduction in cell viability; assay type: functional, cell-based
[19] = tested on: HL-60(TB); test: Growth inhibition of human HL-60(TB) cells assessed as cell growth inhibition incubated for 48 hrs by sulforhodamine B assay; assay type: functional; conditions: HL-60, 48 h
[20] = tested on: HCT-116; test: Growth inhibition of human HCT116 cells assessed as cell growth inhibition incubated for 48 hrs by sulforhodamine B assay; assay type: functional; conditions: HCT-116, 48 h
[21] = tested on: T47D; test: Growth inhibition of human T47D cells assessed as cell growth inhibition incubated for 48 hrs by sulforhodamine B assay; assay type: functional
[22] = tested on: MDA-MB-231; test: Growth inhibition of human MDA-MB-231 cells assessed as cell growth inhibition incubated for 48 hrs by sulforhodamine B assay; assay type: functional; conditions: MDA-MB-231, 48 h
[23] = tested on: NCI-H322M; test: Growth inhibition of human NCI-H322M cells assessed as cell growth inhibition incubated for 48 hrs by sulforhodamine B assay; assay type: functional
[24] = tested on: VCaP; test: Antiproliferative activity against human VCaP cells assessed as reduction in cell viability; assay type: functional, cell-based
[25] = tested on: MV4-11; test: Antiproliferative activity against human MV4-11 cells assessed as reduction in cell viability; assay type: functional, cell-based
[26] = tested on: IGROV-1; test: Growth inhibition of human IGROV1 cells assessed as cell growth inhibition incubated for 48 hrs by sulforhodamine B assay; assay type: functional; conditions: IGROV-1, 48 h
[27] = tested on: NCI-H226; test: Growth inhibition of human NCI-H226 cells assessed as cell growth inhibition incubated for 48 hrs by sulforhodamine B assay; assay type: functional; conditions: NCI-H226, 48 h
[28] = tested on: MV4-11; test: Antiproliferative activity against human MV4-11 cells assessed as reduction in cell viability measured after 48 hrs by CellTiter-Glo assay; assay type: functional, cell-based; conditions: MV4-11, 48 h
[29] = tested on: K562; test: Growth inhibition of human K562 cells assessed as cell growth inhibition incubated for 48 hrs by sulforhodamine B assay; assay type: functional; conditions: K562, 48 h
[30] = tested on: NCI-H1650; test: Antiproliferative activity against human NCI-H1650 cells assessed as reduction in cell viability; assay type: functional, cell-based
[31] = tested on: SNB-19; test: Growth inhibition of human SNB19 cells assessed as cell growth inhibition incubated for 48 hrs by sulforhodamine B assay; assay type: functional; conditions: SNB-19, 48 h
[32] = tested on: CWR22R; test: Antiproliferative activity against human 22Rv1 cells assessed as reduction in cell viability; assay type: functional, cell-based
[33] = tested on: SK-MEL-2; test: Growth inhibition of human SK-MEL-2 cells assessed as cell growth inhibition incubated for 48 hrs by sulforhodamine B assay; assay type: functional; conditions: SK-MEL-2, 48 h
[34] = tested on: Hs-578T; test: Growth inhibition of human Hs 578T cells assessed as cell growth inhibition incubated for 48 hrs by sulforhodamine B assay; assay type: functional
[35] = tested on: NCI-H1975; test: Antiproliferative activity against human NCI-H1975 cells assessed as reduction in cell viability; assay type: functional, cell-based
[36] = tested on: MCF7; test: Growth inhibition of human MCF7 cells assessed as cell growth inhibition incubated for 48 hrs by sulforhodamine B assay; assay type: functional; conditions: MCF7, 48 h
[37] = tested on: SF-268; test: Growth inhibition of human SF268 cells assessed as cell growth inhibition incubated for 48 hrs by sulforhodamine B assay; assay type: functional; conditions: SF-268, 48 h
[38] = molecular target: T1, Protein cereblon/Bromodomain-containing protein 4/Cullin-4A (Homo sapiens); test: Protac activity at cereblon/cullin4A/BRD4 in human MV4-11 cells assessed as induction of BRD4 degradation at 10 nM measured after 18 hrs by Western blot analysis; assay type: cell-based

Work on COc1ccccc1S(=O)(=O)Nc1ccc2c3c(cc(CCC(=O)NCCCCNc4cccc5c4C(=O)N(C4CCC(=O)NC4=O)C5=O)cc13)C(=O)N2C (stereo not drawn) yielded a GI50 [1] of 2110 nM, an IC50 [2] of 440 nM and an IC50 [3] of 156 nM. It also gave a GI50 [4] of 3.22 µM, a GI50 [5] of 26 nM and a GI50 [6] of 31 nM. It also gave a GI50 [7] of 78 nM, an IC50 [8] of 2440 nM and an Activity [9] of 80%. For the same molecule, the GI50 [10] was 675 nM, the GI50 [11] was 5.26 µM and the GI50 [12] was 161 nM. For the same molecule, the GI50 [13] was 28 nM, the Activity [14] was 71.37% and the Activity [15] was “Active”. It also gave a GI50 [16] of 495 nM, a GI50 [17] of 683 nM and an IC50 [18] of 580 nM. The GI50 [19] was 22 nM, the GI50 [20] was 3.66 µM and the GI50 [21] was 34 nM. The GI50 [22] was 32 nM, the GI50 [23] was 355 nM and the IC50 [24] was 250 nM. It also gave an IC50 [25] of 9.79 nM, a GI50 [26] of 145 nM and a GI50 [27] of 456 nM. It also gave an IC50 [28] of 12.2 nM, a GI50 [29] of 422 nM and an IC50 [30] of 1330 nM. The GI50 [31] was 475 nM, the IC50 [32] was 81 nM and the GI50 [33] was 1120 nM. It also gave a GI50 [34] of 186 nM, an IC50 [35] of 459 nM and a GI50 [36] of 303 nM. For the same molecule, the GI50 [37] was 366 nM and the Activity [38] was “Active”.
